Measured values taken from patent US8637462B2, “Methods for reducing platelet counts and/or platelet adhesion by administering a GC-B receptor agonist” (Mayo Foundation for Medical Education and Research, priority 2011, dated 2014).
Entries after “also recorded” stand apart in the source; their conditions may differ.

How the values were obtained:
platelets [1] = assay: cGMP production in washed platelets; type: cell-based, mouse; conditions: 30 minutes at 37° C. in Tyrode's buffer with 1 mM Ca+2; FIG. 6
Description: Platelet isolation was adapted from studies described elsewhere (Boylan et al., Blood, 108(3):908-14 (2006); Moraes et al., J. Thromb. Haemost., 8(11):2530-41 (2010); and Bougie et al., Blood, 116(16):3033-8 (2010)). Briefly, C57BL/6 mice were anesthetized with ketamine/xylazine. Blood was obtained from the vena cava and collected into 3.8% sodium citrate. The whole blood was then diluted with equal volumes of Tyrode's buffer containing PGE1 (50 ng/mL), glucose (1 mg/mL), and BSA (2.5 mg/mL) before being spun at 280×g to obtain platelet rich plasma (PRP). The upper […] of the PRP was collected and spun for 10 minutes to collect the platelets. The platelets were then washed with Tyrode's buffer before any analysis was performed. The platelets were counted, visualized by microscopy, and then used for FACS analysis, immunostaining, and western blotting. CD41, CD42D, and GC-B expression was detected by FACS (FIG. 5, middle panel).
The effect of CNP on cGMP production in platelets was studied. Washed platelets were treated with CNP or the mutant Lbab polypeptide for 30 minutes at 37° C. with 5% CO2 in Tyrode's buffer with 1 mM Ca^+2. After the incubation, the cells were lysed, and the amount of cGMP was calculated according to the standard curve that was generated from parallel reactions within the same experiment.

platelets [2] = assay: Platelet adhesion to fibrinogen; type: cell-based, human or C57B1/6 mice; conditions: CNP-treated vs Lbab polypeptide-treated
Description: (§1) The role of CNP on platelet aggregation and platelet adhesion to fibrinogen, fibronectin, and collagen were assessed. Human platelets or platelets from C57B1/6 mice were isolated and treated with either CNP or the Lbab polypeptide for 30 minutes at 37° C. with 5% CO2. Following treatment, the platelets were gently added to cover slips pre-blocked with 1% BSA and pre-coated with fibrinogen, fibronectin, or collagen (50 μg/mL, CHRONOLOG Corp., Havertown, Pa.). Ca^+2 and Mg^+2 were added to 1 mM and 2 mM, respectively, before incubation at 37° C. for 30 minutes. The platelets were then fixed and permeabilized before staining with TRITC Phalloidin (0.5 μg/mL; Sigma) for an hour. The platelets were then gently washed a couple of times with PBS and mounted in Vectashield mounting medium (Vector laboratories, Burlingame, Calif.) and sealed with nail polish as described elsewhere (Moraes et al., J. Thromb. Haemost., 8(11):2530-41 (2010); and Bougie et al., Blood, 116(16):3033-8 (2010)). Images were acquired from five consecutive fields using a Zeiss Axioscop microscope (Carl Zeiss, Oberkochen, Germany) with a Zeiss 100× oil-immersion lens. The images were analyzed using ImageJ software.

tubulin [3] = assay: Tubulin polymerization assay; type: biochemical; conditions: nucleation, growth and steady state phases; FIG. 11
Description: To demarcate whether the effects of CNP on microtubules was direct or indirect, a microtubule polymerization assay from cytoskeleton was utilized as per manufacturer's protocol. The assay studied all three phases of microtubule formation, namely nucleation, growth, and steady state equilibrium.
A 96-well plate was warmed in the incubator to 37° C. for 10 minutes. During this time, 10× stock solutions of compounds to be tested were prepared. 5 μL of control buffer, 5 μL of the 10× paclitaxel stock, and 5 μL of the 10× test compound were added to their respective wells. Next, the 96 well plate was placed back into warm plate reader for 1 minute. Finally, 50 μL of the tubulin reaction mix was added to each of the wells as quickly as possible, and the plate reader was started.

[4] = test system: GC-B present on megakaryocytes; assay: cGMP production in megakaryocytes (BIOTRAK cGMP enzyme immunoassay); type: cell-based, mouse; conditions: 30 minutes at 37° C.; FIG. 3
Excerpt: Primary hematopoietic progenitor cells were isolated from mouse fetal livers of E13.5 embryos (C57B1/6) or from femurs and tibias of C57B1/6 mice using the EasySep negative selection mouse hematopoietic progenitor enrichment kit (Stem Cell Technologies, Vancouver, BC). The progenitor cells were then expanded for two days in serum free expansion media containing 50% RPMI using standard techniques to generate megakaryocytes (Huang et al., J. Clin. Invest., 117(12):3890-9 (2007) and Muntean and Crispino, Blood, 106(4):1223-31 (2005)). The purity of the megakaryocytes was assessed using acetylcholinesterase (AchE) staining using standard protocols and FACS with CD41 (Emfret Analytics).
The following was performed to determine if GC-B present on megakaryocytes is functional and responsive to CNP. Megakaryocytes were treated with either CNP or a single residue mutant CNP designated Lbab for 30 minutes at 37° C. with 5% CO2 in IMDM media supplemented with 1% Nutridoma, penicillin, streptomycin, L-glutamine, and recombinant TPO. The Lbab polypeptide (FIG. 2) is described elsewhere (Yoder et al., Peptides, 29(9):1575-81 (2008)).
After the incubation, the cells were lysed, and the amount of cGMP was measured using a BIOTRAK cGMP enzyme immunoassay system Kit (GE Healthcare Bio-Sciences Corp.).

tubulin [5] = assay: Immunocytochemistry of tubulin in platelets (cytospin); type: cell-based; conditions: human platelets; FIG. 9
Description: (§2) The following was performed to determine if CNP could affect cytoskeletal proteins such as tubulin and/or actin. To delineate this function of CNP, human platelets were either treated with the Lbab polypeptide or CNP and were placed on slides using cytospin Immunocytochemistry was performed with anti-tubulin or anti-actin antibodies.
PRP was spun down in a cytospin at 1000 rpm for 2 minutes to obtain slides of mouse/human platelets. These slides were fixed and blocked with 10% normal goat serum and incubated with mouse anti-tubulin antibody at 1:700 (Sigma) in PBS. Goat anti-mouse Alexa Fluor 594 at 1:500 (Molecular Probes) was used to visualize the tubulin. Matched negative controls also were used.

tubulin [6] = assay: Platelet spreading assay, tubulin staining; type: cell-based; conditions: FIG. 10
Excerpt: (§3) To confirm these findings, tubulin and actin also were stained on platelets that were viable and functionally active using a spreading assay.

platelets [7] = assay: Platelet adhesion to collagen; type: cell-based, human or C57B1/6 mice; conditions: for number of platelets adhered to collagen: n=5; for platelet adhesion to collagen (in words): FIG. 7; for pseudopodia formation of platelets adhered to collagen: light microscopy
Description: as §1
Platelets were isolated and treated with either CNP or the mutant Lbab polypeptide for 30 minutes at 37° C. with 5% CO2. Following treatment, the platelets were gently added to cover slips pre-blocked with 1% BSA and pre-coated with collagen ([…], CHRONOLOG-corporation). Ca^+2 and Mg^+2 were added to 1 mM and 2 mM, respectively, before incubation at 37° C. for 30 minutes. The platelets were then fixed and permeabilized before staining with TRITC Phalloidin (0.5 μg/mL; Sigma) for an hour. The platelets were then gently washed a couple of times with PBS and then mounted in Vectashield mounting medium (Vector laboratories, Burlingame, Calif.) and sealed with nail polish. Images were acquired from five consecutive fields using Zeiss Axioscop microscope (Carl Zeiss, Oberkochen, Germany) with a Zeiss 100× oil-immersion lens and analyzed using ImageJ software.
Cells were placed in Trump's fixative, 4% formaldehyde: 1% glutaraldehyde for 1 hour or longer at 4° C. After two rinses in 0.1 M sodium phosphate buffer (pH 7.2), samples were dehydrated in a graded ethanol series to 100% ethanol at which time they were critical point dried with liquid carbon dioxide. They were then mounted on specimen stubs, sputter-coated with gold-palladium, and examined with a Hitachi S4700 scanning electron microscope.

actin = assay: Platelet spreading assay, actin staining; type: cell-based; conditions: FIG. 10
Description: as §2, §3

platelets [8] = assay: Platelet aggregation (lumi-aggregometer); type: cell-based; conditions: data not shown
Description: The role of CNP on platelet aggregation and platelet adhesion to fibrinogen, fibronectin, and collagen were assessed. Human platelets or platelets from C57B1/6 mice were isolated and treated with either CNP or the Lbab polypeptide for 30 minutes at 37° C. with 5% CO2. Following treatment, the platelets were gently added to cover slips pre-blocked with 1% BSA and pre-coated with fibrinogen, fibronectin, or collagen (50 μg/mL, CHRONOLOG Corp., Havertown, Pa.). Ca^+2 and Mg^+2 were added to 1 mM and 2 mM, respectively, before incubation at 37° C. for 30 minutes. The platelets were then fixed and permeabilized before staining with TRITC Phalloidin (0.5 μg/mL; Sigma) for an hour. […] The images were analyzed using ImageJ software.
Platelet aggregation was performed at 37° C. in lumi-aggregometer in the presence of luciferin-luciferase to simultaneously measure light transmission and secretion of dense granule-derived ATP. […] Platelet aggregation and secretion was measured in a lumi-aggregometer (Chrono-Log, Havertown, Pa.) for 1 minute following which the polypeptide (CNP or Lbab) was added to the platelets, and aggregation and secretion were measured once again for 2 minutes in order to determine if the polypeptide itself activates the platelets. […] Aggregation and secretion were measured for 15 minutes.

platelets [9] = assay: Platelet adhesion to fibronectin; type: cell-based, human or C57B1/6 mice; conditions: CNP-treated vs Lbab polypeptide-treated
Description: as §1

megakaryocytes = assay: Megakaryocyte colony formation assay (MegaCult-C); type: cell-based, mouse; conditions: bone marrow cells, 6 to 8 days; FIG. 4
Description: To determine the effect of CNP on the colony forming ability of megakaryocytes, colony formation assays were conducted using MegaCult®-C (StemCell Tech) as per the manufacturer's protocol. Mice were euthanized, and bone marrow was collected from femurs and tibias by flushing the bones multiple times with IMDM. Once a single cell suspension was achieved, the cells were added to MegaCult®-C medium containing cytokines and collagen. The cell suspension was then dispensed into the chamber slide at the concentration of 20,000 cells/well and incubated at 37° C. with 5% CO2 and >95% humidity for 6 to 8 days. The cells were then dehydrated and fixed with acetone followed by acetylcholinesterase staining. The colonies were scored using a 5× objective, and 10× objective was used to examine colonies in greater detail.

Sequence of GC-B present on megakaryocytes (Q6VVW5 23-1047 limits assumed): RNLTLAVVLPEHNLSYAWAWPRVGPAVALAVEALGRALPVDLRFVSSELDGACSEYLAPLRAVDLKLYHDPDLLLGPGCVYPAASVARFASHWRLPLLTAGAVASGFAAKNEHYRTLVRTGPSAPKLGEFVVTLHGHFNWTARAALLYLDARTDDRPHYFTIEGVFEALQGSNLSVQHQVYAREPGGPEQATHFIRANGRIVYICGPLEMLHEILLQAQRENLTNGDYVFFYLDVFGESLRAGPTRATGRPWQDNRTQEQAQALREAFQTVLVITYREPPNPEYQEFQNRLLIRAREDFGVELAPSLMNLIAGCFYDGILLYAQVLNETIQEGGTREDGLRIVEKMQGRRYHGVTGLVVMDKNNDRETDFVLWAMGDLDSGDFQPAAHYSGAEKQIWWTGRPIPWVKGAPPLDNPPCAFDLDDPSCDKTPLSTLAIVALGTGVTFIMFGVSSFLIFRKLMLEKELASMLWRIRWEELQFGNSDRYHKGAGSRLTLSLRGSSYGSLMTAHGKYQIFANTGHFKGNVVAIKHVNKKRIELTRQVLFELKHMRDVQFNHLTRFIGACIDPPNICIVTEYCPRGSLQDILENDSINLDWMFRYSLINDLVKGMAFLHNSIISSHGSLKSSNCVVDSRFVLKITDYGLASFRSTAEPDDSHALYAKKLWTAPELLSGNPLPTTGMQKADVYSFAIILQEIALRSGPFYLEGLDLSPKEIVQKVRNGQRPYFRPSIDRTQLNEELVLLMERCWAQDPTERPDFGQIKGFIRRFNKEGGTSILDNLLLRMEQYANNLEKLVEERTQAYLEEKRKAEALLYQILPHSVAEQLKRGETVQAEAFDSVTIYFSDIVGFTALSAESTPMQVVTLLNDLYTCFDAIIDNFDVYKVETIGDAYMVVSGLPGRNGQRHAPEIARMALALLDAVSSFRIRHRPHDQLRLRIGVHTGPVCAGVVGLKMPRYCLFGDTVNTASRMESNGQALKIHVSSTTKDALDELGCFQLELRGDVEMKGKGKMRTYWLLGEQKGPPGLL

| Molecule | cGMP production in platelets (platelets [1]) | adhesion of platelets to fibrinogen (platelets [2]) | tubulin polymerization (O.D.) (tubulin [3]) | cGMP production by megakaryocytes [4] | marginal band formation (tubulin) within platelets (tubulin [5]) | tubulin distribution in spreading platelets (tubulin [6]) | number of platelets adhered to collagen (platelets [7]; 500 nM) | number of platelets adhered to collagen (platelets [7]; 1000 nM) | platelet adhesion to collagen (in words) (platelets [7]) | filopodia of platelets in the presence of collagen (platelets [7]; electron microscopy, varying concentrations, FIG. 8) | pseudopodia formation of platelets adhered to collagen (platelets [7]) | actin distribution / function in spreading platelets (actin) | platelet aggregation (platelets [8]) | adhesion of platelets to fibronectin (platelets [9]) | megakaryocyte colony formation (megakaryocytes) | megakaryocyte colony size (megakaryocytes) |
| --- | --- | --- | --- | --- | --- | --- | --- | --- | --- | --- | --- | --- | --- | --- | --- | --- |
| c-type natriuretic peptide [CNP] | did not affect cGMP levels | no significant difference | has effects on the growth and steady state phases of tubulin polymerization | stimulated a dose-dependent increase in cGMP formation | decreased marginal band formation | inhibits tubulin distribution in spreading platelets | 2451±39 | 1712±20 | attenuated platelet adhesion to collagen | aberrant filopodia | abnormal pseudopodia formation | minimal effect on actin distribution; also recorded: does not influence actin function significantly | unaffected | no significant difference | inhibited colony formation | significantly affected colony size |
| CC(=O)O[C@H]1C(=O)[C@@]2(C)[C@H]([C@H](OC(=O)c3ccccc3)[C@]3(O)C[C@H](OC(=O)[C@H](O)[C@@H](NC(=O)c4ccccc4)c4ccccc4)C(C)=C1C3(C)C)[C@]1(OC(C)=O)CO[C@@H]1C[C@@H]2O [Taxol, paclitaxel, reference compound] | – | – | effects on the growth and steady state phases of tubulin polymerization | – | – | inhibits tubulin distribution in spreading platelets | – | – | – | – | – | minimal effect on actin distribution | – | – | – | – |
| Lbab: single residue mutant CNP (SEQ ID NO:2) with Arg to Gly substitution, used as control polypeptide (GLSKGCFGLKLDGIGSMSGLGC; Mutant CNP; listed as Homo sapiens) [reference compound] | – | – | – | but not the Lbab polypeptide, stimulated cGMP production | capable of forming clear marginal bands | does not demonstrate such an affect | 4536±43 | 4390±24 | near normal platelet adhesion to collagen | – | normal sprouting of pseudopodia | – | – | – | – | – |
